Measured values reported in patent publication US8575188B2 (priority 2009, dated 2013).

How the values were obtained:
[1] = test system: H69 small cell lung cancer line; assay: Efflux pump drug resistance, antiproliferation assay, parent line; type: cell-based; settings: 72 h, air, 3 days; read-out: Air 3d H69 prol. IC50
Experimental: (§1) The compounds were screened for cytotoxicity using human non small cell lung cancer cell line H460. […]
(§2) Cellular drug resistance was determined using the antiproliferation assay described above.

pcDNA = assay: as above; type: cell-based; settings: 72 h, air, 3 days; read-out: Air 3d pcDNA prol. IC50
Experimental: as §1, §2

[2] = test system: human melanoma cell line A375; assay: Antiproliferation assay, 72 hrs under air, Alamar Blue; type: cell-based; settings: Homo sapiens, A-375
[3] = test system: human prostate cancer cell line LNCap; assay: as above; type: cell-based; settings: Homo sapiens, LNCaP
[4] = test system: human colon cancer cell line HT-29; assay: as above; type: cell-based; settings: Homo sapiens, HT-29, read-out: HT29 IC50
[5] = test system: bone marrow progenitor cells; assay: Bone marrow progenitor cell clonogenic assay (CFU-GM), human; settings: Homo sapiens, CFU-GM, read-out: Human CFU-GM (IC50 nM) THLD
Experimental: (§3) A clonogenic assay was performed using bone marrow progenitor cells derived from the blood of mice and humans.

[6] = as above; settings: human
Experimental: as §3

[7] = test system: human melanoma cell line MAMLE-3M; assay: Antiproliferation assay, 72 hrs under air, Alamar Blue; type: cell-based; settings: Homo sapiens
[8] = test system: MRP1 over expressing H69AR line; assay: Efflux pump drug resistance, antiproliferation assay, MRP1 over expressing line; type: cell-based; settings: Homo sapiens, 72 h, air, 3 days, read-out: Air 3d H69ar (MRP1) prol. IC50
Experimental: as §1, §2

human colon cancer HT-29 = assay: Xenograft model, subcutaneous, tumor growth inhibition and body weight loss; settings: for TGI (%): HT29, PO, QD × 5/wk; for Max. BWL (%): mouse, in vivo, po
Experimental: (§4) The first three models were produced by subcutaneous implantation of the appropriate number of cells into the flank of the animals. When tumor size was approximately 150 mm^3, animals were randomized into groups of 10 mice each for dosing. One arm was dosed with only vehicle and the results used for the efficacy calculations. […] TGI=(1−T/C) %. T/C ratio was calculated as T/C=(Tn−Ti)/(Cn−Ci), where Tn is tumor volume in treatment group on Day n, and Ti is the initial tumor volume in the treatment group. Cn is the tumor volume of the vehicle group on the last day of measurement. Ci is the initial tumor volume in the vehicle control group. Day n is the last measurement taken when all the animals in the vehicle group were not yet euthanized. Animals were euthanized when tumor volumes grew larger than 2000 mm^3.

[9] = test system: human non small cell lung cancer H-460; assay: as above; settings: for TGI (%): H460, PO, QD × 5/wk, 2 weeks; for Max. BWL (%): mouse, in vivo, po
Experimental: as §4

[10] = test system: human melanoma cell line SKMEL-28; assay: Antiproliferation assay, 72 hrs under air, Alamar Blue; type: cell-based; settings: Homo sapiens, SK-MEL-28
[11] = test system: bone marrow progenitor cells; assay: Bone marrow progenitor cell clonogenic assay (CFU-GM), mouse; settings: Mus musculus, CFU-GM, read-out: Mouse CFU-GM (IC50 nM) THLD
Experimental: as §3

[12] = as above; settings: mouse
Experimental: as §3

[13] = test system: human melanoma cell line SKMEL2; assay: Antiproliferation assay, 72 hrs under air, Alamar Blue; type: cell-based; settings: Homo sapiens, SK-MEL-2, read-out: SKMEL-2 IC50
[14] = test system: human non small cell lung cancer cell line H460; assay: Antiproliferation (cytotoxicity) assay, 72 hrs under air, Alamar Blue; type: cell-based; settings: Homo sapiens, NCI-H460; H460, inhibition of proliferation, 72 hrs under air; read-out: IC50
[15] = In vivo pharmacokinetics, oral gavage; settings: CD, mouse, in vivo, po; for AUC / Cmax: 50 mg/kg
Experimental: The data normalized to a 50 mg/kg dose are shown below (compounds were dosed at either 25 or 50 mg/kg).

[16] = test system: human ovarian cancer cell line IGROV-1; assay: Antiproliferation assay, 72 hrs under air, Alamar Blue; type: cell-based; settings: Homo sapiens, IGROV-1
[17] = Brain penetration, AUC in brain versus AUC plasma; settings: mouse
Experimental: Certain compounds of the invention were assessed for brain penetration by comparing the AUC for plasma exposure versus the AUC in brain.

[18] = test system: BCRP, which over expressed the breast cancer resistance protein; assay: Efflux pump drug resistance, antiproliferation assay, BCRP over expressing line; settings: for IC50: 72 h, read-out: Air 3d BCRP prol. IC50 nM, air, 3 days; for 3d BCRP/pcDNA: ratio of IC50s, BCRP over expressing versus parent line, 3 days
Experimental: as §1, §2

[19] = test system: human prostate cancer cell line DU145; assay: Antiproliferation assay, 72 hrs under air, Alamar Blue; type: cell-based; settings: Homo sapiens, DU-145
[20] = test system: Messa ovarian carcinoma cell line; assay: Efflux pump drug resistance, antiproliferation assay, parent line; type: cell-based; settings: Homo sapiens, MES-SA, 72 h, air, 3 days; read-out: Air 3d MESSA prol. IC50
Experimental: […] Cells were treated with test compounds at various concentrations under air for 72 hrs, and then cell viability and proliferation were assessed by Alamar Blue staining.
as §2

[21] = test system: DX5, which over expresses the MDR 1 efflux pump; assay: Efflux pump drug resistance, antiproliferation assay, MDR 1 over expressing line; type: cell-based; settings: MDR1, 72 h, air, 3 days; read-out: Air 3d DX5 prol. IC50
Experimental: as §1, §2

[22] = test system: mouse melanoma cell line B-16-F10; assay: Antiproliferation assay, 72 hrs under air, Alamar Blue; type: cell-based; settings: B16-F10
[23] = test system: human prostate cancer cell line PC-3; assay: as above; type: cell-based; settings: Homo sapiens, read-out: PC3 IC50
[24] = test system: IGROV1 human ovarian cancer cells; assay: Xenograft model of metastatic ovarian cancer (i.p.), survival; settings: IGROV1 i.p., median survival treated / vehicle times 100, PO, QD × 5/wk, 4 weeks
Experimental: One arm was dosed with only vehicle and the results used for the efficacy calculations. […] A xenograft model of metastatic ovarian cancer was set up by the intraperitoneal (i.p) injection of 3×10^6 IGROV1 human ovarian cancer cells in nude mice. Mice were evaluated twice a week for morbidity and mortality. Kaplan-Meier survival curves were plotted.

[25] = test system: human prostate cancer PC-3; assay: Xenograft model, subcutaneous, tumor growth inhibition and body weight loss
Experimental: as §4

Oral bioavailability = settings: rat, in vivo, Sprague-Dawley rats
From the text: Rats are often a useful species for predicting oral bioavailablity in humans.

Row | SMILES | IC50 [1] [nM] | IC50 (pcDNA) [nM] | IC50 [2] [nM] | IC50 [3] [nM] | IC50 [4] [nM] | IC50 [5] [nM] | IC90 [6] [nM] | IC50 [7] [nM] | IC50 [8] [nM] | IC50 [10] [nM] | IC50 [11] [nM] | IC90 [12] [nM] | IC50 [13] [nM] | IC50 [14] [nM] | half-life [15] [h] | AUC [15] [ng·h/mL] | Cmax [15] [ng/mL] | IC50 [16] [nM] | Kp [17] | IC50 [18] [nM] | other results
1 | CC[C@@]1(O)C(=O)OCc2c1c(N)c1n(c2=O)Cc2cc3ccccc3nc2-1 [TH1320] | 91 | 7.4 | 22 | 110 | 229 | 130 | 1100 | 776 | 91 | 3000 | 710 | 4800 | 170 | 18 | 1.98 | 1620 | 547 | 120 | 1.15 | 14 | TGI (%) (human colon cancer HT-29; 2 weeks, 30 mg/Kg): 44.3%; Max. BWL (%) (human colon cancer HT-29; 30 mg/kg): 3%; TGI (%) ([9]; 30 mg/Kg): 79.2%; Max. BWL (%) ([9]; 30 mg/kg): 3.8%; 3d BCRP/pcDNA [18]: 1.8919; IC50 [19]: 50 nM; IC50 [20]: 58 nM; IC50 [21]: 60 nM; IC50 [22]: 950 nM; IC50 [23]: 43 nM; T/C ([24]; 20 mg/Kg): 204
2 | CCc1c2c(nc3ccccc13)-c1c(N)c3c(c(=O)n1C2)COC(=O)[C@]3(O)CC [TH1338] | 110 | 4.3 | 7 | 120 | 302 | 100 | 650 | 1200 | 240 | > 10000 | 620 | 4500 | 130 | 7.2 | 4.17 | 1070 | 250 | 20 | 0.7 | 4.9 | TGI (%) (human colon cancer HT-29; 4 weeks, 40 mg/Kg): 100.7%; Max. BWL (%) (human colon cancer HT-29; 40 mg/kg): 2.9%; TGI (%) ([9]; 40 mg/Kg): 84.3%; Max. BWL (%) ([9]; 40 mg/kg): 1.5%; TGI (%) ([25]; PC3, PO, QD × 5/wk, 2 weeks, 40 mg/Kg): 107%; Max. BWL (%) ([25]; mouse, in vivo, po, 40 mg/kg): 7%; bioavailability (Oral bioavailability): 88.9%; 3d BCRP/pcDNA [18]: 1.1395; IC50 [19]: 18 nM; IC50 [20]: 4.3 nM; IC50 [21]: 12 nM; IC50 [23]: 24 nM; T/C ([24]; 40 mg/Kg): 221
